According to the NIST ThermoML archive (doi:10.1021/acs.jced.8b00879):
Numbers after ± are expanded uncertainties.

Legend:
[1] = 85 kPa, Liquid, Capillary tube (Ostwald / Ubbelohde) method
[2] = mn = molality of the nth substance listed, in mol/kg; conditions: 85 kPa, Liquid, m2 = 0; for viscosity: Capillary tube (Ostwald / Ubbelohde) method

viscosity ([1]; 288.15 K) [mPa·s]	viscosity ([1]; 298.15 K) [mPa·s]	viscosity ([1]; 308.15 K) [mPa·s]	viscosity ([1]; 318.15 K) [mPa·s]	viscosity ([2]; 288.15 K) [mPa·s]	viscosity ([2]; 298.15 K) [mPa·s]	mass density ([2]; 298.15 K, Vibrating tube method) [kg/m3]	viscosity ([2]; 308.15 K) [mPa·s]	viscosity ([2]; 318.15 K) [mPa·s]	Compound
1.259 ± 0.12	0.995 ± 0.12	0.819 ± 0.12	0.686 ± 0.12						O [water]
				1.259 ± 0.12	0.995 ± 0.12	997.38 ± 0.43	0.819 ± 0.12	0.686 ± 0.12	O [water] + C[N+](C)(C)CCO.NCC(=O)[O-]
				1.259 ± 0.12	0.995 ± 0.12		0.819 ± 0.12	0.686 ± 0.12	O [water] + C[N+](C)(C)CCO.O=C([O-])[C@@H]1CCCN1
